Tested on: Primary Human Subcutaneous Preadipocytes
Assay type: cell-based
Conditions: 2.5 ug/mL
Method: Quantification of adipogenesis is evaluated with AdipoRed™ Adipogenesis Assay Reagent (Lonza). The increase of the accumulation of lipids is determined by measuring the fluorescence signal of Nile Red in primary human Primary Human Subcutaneous Preadipocytes after treatment with exopolysaccharide produced by the strain of Halomonas eurihalina species with deposit number LMG P-28571 obtained in accordance with example 1 in Adipocyte Differentiation Medium. Cells treated with Adipocyte Differentiation Medium alone are used as a basal control. Human preadipocytes (from a donor) (ZENBIO) are seeded (13,000 cells/well, 5 wells per condition) in 96-clear well plates in Preadipocyte Growth Medium (ZENBIO). The cells are incubated for 24 hours at 37° C. in a water-saturated atmosphere of 95% air and 5% CO2. […] In the basal control, preadipocytes are treated with the Adipocyte Differentiation Medium only. As a negative control, preadipocytes are treated with the Adipocyte Differentiation Medium and caffeine. Quantification of the accumulation of lipids is carried out by AdipoRed™ reagent (LONZA) assay. […] The percentage of normalized lipid accumulation compared with the basal control is calculated.

SMILES: Cn1c(=O)c2c(ncn2C)n(C)c1=O [Caffeine, caffeine]
- % Lipid accumulation vs basal control: 87.50%

From US10413501B2, “Cosmetic composition containing halomonas ferment extract, and use thereof” (LUBRIZOL ADVANCED MATERIALS, INC., priority 2014, dated 2019)
